Measured values published in ChEMBL document CHEMBL3507680, “University of Dundee, Gates Library screen for HepG2 cell viability”.

Assay: Human HepG2 cell viability assay in 384 well format
Assay type: toxicity, cell-based
Design: dose 125 nL, time 70.5 hour; concentration not given beside the values
Conditions: HepG2 cells, read-out: Inhibition

Row | SMILES | cytotoxicity at 70.5 h [%]
1 | CN1CCCC[C@@H]2[C@H]1[C@@H](c1ccccc1)CCN2C(=O)c1ccccc1 | 1.32
2 | Cc1nc(O)c2nnn(C[C@H]3CCCN3C(=O)CCC3CCCC3)c2n1 | 5.57
3 | Cc1nc(C2CCN(C(=O)c3ccc(=O)n(C)c3)CC2)c2sccn12 | 2.35
4 | Fc1ccc(CCN2CCC(c3nnc(-c4cccnc4)o3)CC2)cc1 | 16.7
5 | Cn1nc(C2CCCN(Cc3ccsc3)C2)c2nccnc21 (stereo not given) | -0.972
6 | COc1cccc(N2CCN(CC(O)c3cc(C)sc3C)CC2)c1 (stereo not given) | -2.76
7 | O=C(Cc1ccsc1)N1CCCC(c2n[nH]c3nccnc23)C1 (stereo not given) | 18.6
8 | Cn1nc(C2CCCN(C(=O)Cc3ccsc3)C2)c2nccnc21 (stereo not given) | -9.48
9 | Cc1cc2c(=O)n3c(nc2s1)CCN(Cc1ccncc1)CC3 | -13.5
10 | OC1CCCN(Cc2c(-c3ccco3)[nH]c3ncccc23)C1 (stereo not given) | -4.41
11 | Cc1ccc(=O)n(CC2(O)CCN(Cc3cnc(C)nc3)CC2)n1 | -10.4
12 | CC(=O)N1CCCCC1c1cc(CO)[nH]n1 (stereo not given) | -18.5
13 | Cc1cc2c(=O)n3c(nc2s1)CCN(C(=O)c1ccncc1)CC3 | -20
14 | Cc1cccc2cc(CNCCCN3CCOCC3)c(=O)[nH]c12 | 33.6
15 | CS(=O)(=O)N1CCC(C(=O)NC(Cc2ccsc2)c2ccccn2)CC1 (stereo not given) | -3.67
16 | Cc1cc(C)c2cc(CNCC3CCCO3)c3nn(C)c(=O)n3c2c1 (stereo not given) | -6.37
17 | C=Cn1ncc(CN2C[C@@H]3CCCN3C[C@@H]2Cc2ccccc2)c1C | -2.66
18 | CC(=O)N1CCCC(Cc2cncc(Br)c2)CC1 (stereo not given) | 19.5
19 | CC(C)N1CCC(Cc2cc(-c3cccc(C(=O)O)c3)ncn2)C1 (stereo not given) | -15
20 | CCC(=O)N1CCCC1c1nccnc1Nc1ncccn1 (stereo not given) | -15
21 | CN1CCCC(c2cccc(Cc3ccccc3Cl)n2)C1 (stereo not given) | -3.75
22 | C=Cn1ncc(CN2C[C@@H]3CCCN3C[C@H]2CCSC)c1C | -12.3
23 | Cc1cnccc1CN1CC[C@@](C)(O)[C@H](Oc2ccccc2)C1 | 22.4
24 | Cc1ncsc1-c1nnc(C2CCN(Cc3ccc(F)cc3)CC2)o1 | 8.74
25 | Cc1cnccc1CN1C[C@@H](O)[C@H](Oc2cccc(F)c2)C1 | -3.81
26 | O=C(c1cnco1)N1CCCC(Cc2cccc3ncccc23)C1 (stereo not given) | -0.138
27 | Cc1cc(Nc2nc(C)cs2)nc(C2CCCCN2CCO)n1 (stereo not given) | 32.4
28 | CCc1cc(O)nc(C2CCCN2C(=O)c2cccnc2)n1 (stereo not given) | 20.7

Row | SMILES | cytotoxicity at 70.5 h [%]
29 | Cc1ncsc1-c1nnc(C2CCN(CC3CCCCC3)CC2)o1 | -8.62
30 | Cc1nccn1-c1cccc(C2CCCN(C(=O)c3cc[nH]n3)C2)n1 (stereo not given) | 24.4
31 | CN(C)S(=O)(=O)N1CCCC(c2cccc(Cc3ccccc3)n2)C1 (stereo not given) | 19
32 | Cc1csc(Nc2nccnc2C2CCCN2C(=O)C(C)C)n1 (stereo not given) | -18.2
33 | COCC(=O)N1CCC(c2nccnc2Oc2cccnc2C)CC1 | -34
34 | O=S(=O)(c1ccccc1)N1CCCCC1c1cc[nH]n1 (stereo not given) | 21.8
35 | CNc1cc(C2CCCN2C(=O)c2ccc3oc(=O)n(C)c3c2)ccn1 (stereo not given) | -12.4
36 | Cc1c[nH]nc1C1CCCCN1C(=O)Cn1cc(Cl)cn1 (stereo not given) | -15.8
37 | CNc1cncc(C2CCCN2C(=O)c2ccc3oc(C)cc3c2)n1 (stereo not given) | -8.56
38 | CNc1cncc(C2CCCN2Cc2c[nH]cn2)n1 (stereo not given) | -18.1
39 | O=C(c1cc[nH]n1)N1CCCC(c2cccc(-n3ccnc3)n2)C1 (stereo not given) | -10.3
40 | Cc1ccccc1-c1cncc(C2CCN(C(C)C)CC2)n1 | -22.4
41 | O=C1NCC2(CCCN(Cc3ccc(Cl)s3)C2)Oc2ccccc21 (stereo not given) | -12.5
42 | CO[C@@H]1CC[C@@H](N(C)C(=O)COc2ccc(F)cc2)[C@H]1O | -28.5
43 | CNC(=O)c1ccc(C2CN(C(=O)COC)CCO2)nc1 (stereo not given) | -16.7
44 | CNc1nc(C2CCCN2C(C)=O)nc2c1CCN(CC1CC1)C2 (stereo not given) | -13.7
45 | CC(C)c1cc(C(=O)N(C)Cc2cccc3ncccc23)n(C)n1 | -3.18
46 | CCCN(C(=O)COC)c1nc2c(s1)CCc1c-2cnn1C | 3.43
47 | NC(=O)C1(CCCc2cccnc2)CCCN(c2ncccn2)C1 (stereo not given) | -13.9
48 | NC[C@H]1CC[C@H](C(NC(=O)c2cccc(F)c2)c2ccccn2)CC1 (stereo not given in full) | 41
49 | c1nc(CCC2CCCN2)cc(N2CCCOCC2)n1 (stereo not given) | 9.03
50 | Cn1nc(C2CCN(C(=O)Cc3cccc(F)c3)CC2)c2cccnc21 | -6.14
51 | CCc1nc2ccccc2c(=O)n1CC1(O)CCN(S(C)(=O)=O)CC1 | -20.2
52 | c1ccc(-c2ccc(C3CNCCO3)nc2)cc1 (stereo not given) | -19.9
53 | Cc1cc(C[C@@H]2CCC[C@H]2NCc2ccccc2C(F)(F)F)on1 | -17.3
54 | Cc1cc(C[C@@H]2COC[C@H]2NCc2ccccc2C(F)(F)F)on1 | -11
55 | Cc1cc(C)nc(Nc2cc(C3CCCN(C)C3)nc(C)n2)n1 (stereo not given) | -27.7
